In PMC11357404, “Cytotoxic and Anti-HSV-1 Effects of Caulerpin Derivatives” (Molecules, 2024):
Entries after “also recorded” stand apart in the source; their conditions may differ.

Experiments:
[1] = Cytotoxicity, MTT assay in Vero cells; assay type: cell-based, Cercopithecus aethiops; conditions: African green monkey (Cercopithecus aethiops); for CC50 at 72 h: Absolute CC50, Vero cells, MTT; for viability at 72 h: Vero cells, cell viability curves (Figure 2), read-out: maximum percentage of cell viability
Procedure: (§1) The method of Cheng et al. was followed with modifications to evaluate the cytotoxicity of caulerpin analogs 1, 2, 3, 4, 5, 7, 8, 9, 10, and 11 at concentrations ranging from 200 to 1800 µM. Vero cells (African green monkey kidney cells Cercopithecus aethiops; ATCC, Manassas, VA, USA) grown in Dulbecco’s modified medium (DMEM) supplemented with 5% fetal bovine serum (FBS), […], and 2.5 µg/mL gentamicin at 37 °C in 5% CO2 were used. Each test sample was diluted in DMEM containing 2% fetal bovine serum at six different concentrations. Vero cells were plated at a concentration of 2 × 10^4 cells/well and incubated for 24–36 h. […] After this time, the medium was discarded and 20 μL of MTT solution was added to each well. The plates were incubated for four hours at 37 °C. Subsequently, the supernatant was removed, and 150 μL of DMSO was added to each well to dissolve the formazan crystals. The plates were shaken for 10 min, followed by absorbance reading in an ELISA microplate reader at a wavelength of 540 nm.
(§2) The MTT assay was validated by constructing a trend line using linear regression in the GraphPad Prism Version 6.01 program. Assays that presented R^2 greater than 0.70 were considered appropriate. After the validation of the MTT assay, the CC50 and CC20 values of each tested analog were calculated.

Vero cells [2] = test: Cytotoxicity, MTT assay in Vero cells; assay type: cell-based, Cercopithecus aethiops; conditions: Chlorocebus sabaeus; Vero cells, MTT, 72 h, 200 to 1800 µM
Procedure: as §1, §2

[3] = tested on: Herpes simplex virus type 1 (HSV-1) in Vero cells; test: Antiviral screening, treatment concomitant to infection (MTT); assay type: cell-based; conditions: HSV-1 MOI 0.2, compound at CC20, 72 h; for inhibition of HSV-1-induced cytotoxicity (in words): versus untreated control or acyclovir
Procedure: (§3) The antiviral screening tests were performed following the method of Cheng et al., with modifications. For the anti-HSV-1 (herpes simplex virus type 1) activity of caulerpin analogs, Vero cells were used under the same conditions as described for the cytotoxicity test. The assay was divided into two steps:
Cells were infected with HSV-1 (MOI 0.2) and treated with the compound’s CC20 (concentration toxic to 20% of cells). The plates were incubated at 37 °C in 5% CO2 for 72 h, and cell viability was assessed using the MTT method.
(§4) In both assays, wells containing only cell medium were used as controls for cell growth. For positive control, wells containing medium and virus were used, and wells containing medium, virus, and acyclovir were used as a negative control.
(§5) The inhibition ratio was calculated using the following equation. % Inhibition=(OD treatment−OD positivecontrol)/(OD cell growth−OD positive control)×100 where OD = Optical density (absorbance).

[4] = tested on: Herpes simplex virus type 1 (HSV-1) in Vero cells; test: Antiviral screening, post-infection treatment (MTT); assay type: cell-based; conditions: HSV-1 MOI 0.2 for 1 h, compound at CC20, 72 h, versus infected untreated control or acyclovir
Procedure: as §3
After removing the culture medium, the HSV-1 (MOI 0.2) was added to the wells containing cells for 1 h. After this time, the cells were washed, and the tested compounds and acyclovir were added to their CC20. The plates were incubated at 37 °C in 5% CO2 for 72 h and cell viability was assessed using the MTT method.
as §4, §5

Chikungunya virus = conditions: cited from earlier work
Vero cells [5] = tested on: Vero cells; set-up: method as in doi:10.1590/S0102-695X2012005000072; conditions: cited from earlier work
cancer cell = tested on: cancer cell; set-up: method as in PMID 25237346; conditions: caulerpin extracted from C. peltata; cited from earlier work

CCn1c2c(c3ccccc31)C=C(C(=O)O)c1c(c3ccccc3n1CC)C=C2C(=O)O [Analog 11, (6E,13E)-5,12-Diethyl-5,12-dihydrocycloocta[1,2b:5,6-b′]diindol-6,13-dicarboxylic acid]
CC50 at 72 h [1]: 1000 ± 41.6 µM
Emax (Vero cells [2]): 62.7 ± 0.8%
inhibition of HSV-1-induced cytotoxicity (in words) [3]: significant inhibition; also recorded: efficacy similar to the antiviral agent acyclovir
inhibition of HSV-1-induced cytotoxicity (in words) [4]: higher percentages of cellular inhibition compared to the control group; also recorded: antiviral effects statistically similar to acyclovir

CCn1c2c(c3ccccc31)C=C(C(=O)OC)c1c(c3ccccc3n1CC)C=C2C(=O)OC [Analog 3, (6E,13E)-Dimethyl-5,12-diethyl-5,12 dihydrocycloocta[1,2 b: 5,6-b′]diindole-6,13-dicarboxylate]
CC50 at 72 h [1]: 548 ± 38.8 µM
Emax (Vero cells [2]): 51.5 ± 0.9%
inhibition of HSV-1-induced cytotoxicity (in words) [3]: significant inhibition
inhibition of HSV-1-induced cytotoxicity (in words) [4]: higher percentages of cellular inhibition compared to the control group

COC(=O)C1=Cc2c(n(Cc3ccccc3)c3ccccc23)C(C(=O)OC)=Cc2c1n(Cc1ccccc1)c1ccccc21 [Analog 6, (6E,13E)-Dimethyl-5,12-dinzyl 5,12-dihydrocycloocta[1,2b:5,6-b′]diindol-6,13-dicarboxylate]
CC50 at 72 h [1]: 891 ± 87.8 µM
Emax (Vero cells [2]): 74.1 ± 1.8%
inhibition of HSV-1-induced cytotoxicity (in words) [3]: significant inhibition
inhibition of HSV-1-induced cytotoxicity (in words) [4]: higher percentages of cellular inhibition compared to the control group

O=C(O)C1=Cc2c(n(Cc3ccccc3)c3ccccc23)C(C(=O)O)=Cc2c1n(Cc1ccccc1)c1ccccc21 [Analog 13, (6E,13E)-5,12-Dibenzyl-5,12-dihydrocycloocta[1,2 b: 5,6-b′]diindol-6,13-dicarboxylic acid]
CC50 at 72 h [1]: 494 ± 51.4 µM
Emax (Vero cells [2]): 41 ± 1.2%

C=CCn1c2c(c3ccccc31)C=C(C(=O)O)c1c(c3ccccc3n1CC=C)C=C2C(=O)O [Analog 12, (6E,13E)-5,12-Diallyl-5,12-dihydrocycloocta[1,2b:5,6-b′]diindol-6,13-dicarboxylic acid]
CC50 at 72 h [1]: 664 ± 55.3 µM
Emax (Vero cells [2]): 44.5 ± 1.3%
inhibition of HSV-1-induced cytotoxicity (in words) [3]: significant inhibition; also recorded: efficacy similar to the antiviral agent acyclovir
inhibition of HSV-1-induced cytotoxicity (in words) [4]: higher percentages of cellular inhibition compared to the control group

Nc1nc2c(ncn2COCCO)c(=O)[nH]1 [Acyclovir, reference compound]
inhibition percentage of HSV-1-induced cytotoxicity ([3]; Vero cells): 52.79%

O=C(O)C1=Cc2c([nH]c3ccccc23)C(C(=O)O)=Cc2c1[nH]c1ccccc21 [Analog 9, (6E,13E)-5,12-Dihydrocycloocta[1,2b:5,6-b′]diindol-6,13-dicarboxylic acid]
CC50 at 72 h [1]: 1040 ± 62.4 µM
Emax (Vero cells [2]): 62.6 ± 0.7%

C=CCn1c2c(c3ccccc31)C=C(C(=O)OC)c1c(c3ccccc3n1CC=C)C=C2C(=O)OC [Analog 4]
CC50 at 72 h [1]: 628 ± 69.8 µM
viability at 72 h [1]: < 75%
Emax (Vero cells [2]): 70.1 ± 1.1%

COC(=O)C1=Cc2c(n(C)c3ccccc23)C(C(=O)OC)=Cc2c1n(C)c1ccccc21 [Analog 2, (6E,13E)-Dimethyl-5,12-dimethyl-5,12 dihydrocycloocta[1,2 b: 5,6-b′]diindol-6,13-dicarboxylate]
CC50 at 72 h [1]: 524 ± 19.3 µM
viability at 72 h [1]: < 75%
Emax (Vero cells [2]): 68.4 ± 0.2%

Cn1c2c(c3ccccc31)C=C(C(=O)O)c1c(c3ccccc3n1C)C=C2C(=O)O [Analog 10, (6E,13E)-5,12-Dimethyl-5-dihydrocycloocta[1,2b:5,6-b’]diindol-6,13-dicarboxylic acid]
CC50 at 72 h [1]: 679 ± 38.3 µM
Emax (Vero cells [2]): 71.8 ± 0.3%
inhibition of HSV-1-induced cytotoxicity (in words) [4]: higher percentages of cellular inhibition compared to the control group; also recorded: antiviral effects statistically similar to acyclovir

COC(=O)/C1=C/c2c([nH]c3ccccc23)/C(C(=O)OC)=C\c2c1[nH]c1ccccc21 [Analog 1, (6E,13E)-dimethyl-5,12-dihydrocycloocta[1,2b:5,6-b′]diindol-6,13-dicarboxylate]
CC50 at 72 h [1]: 688 ± 35.2 µM
Emax (Vero cells [2]): 52.7 ± 1.8%
inhibition of HSV-1-induced cytotoxicity (in words) [4]: higher percentages of cellular inhibition compared to the control group
EC50 (Chikungunya virus; Chikungunya virus, read-out: EC50 inhibitory effect): 0.8 µM
inhibition of viral infectivity (virucidal activity) (Chikungunya virus; at 5 μM concentration): ~90%
CC50 (Vero cells [5]): 1180 µM
inhibition of cancer cell growth (cancer cell): 12%
